In brackets after ≈: the same amount, converted by molar mass. Read-outs that look alike come from different tables or passages of the source.
What was measured:
resistant bacteria = conditions: Kokai No. 105154/77; Journal of Antibiotics Vol. 29, 978 (1976); cited from earlier work
[1] = tested on: Pseudomonas aeruginosa No. 12; experiment: Minimum inhibitory concentration, serial dilution on nutrient agar; assay type: cell-based
Source text: (§1) Minimum inhibitory concentrations (mcg/ml) of streptomycin and of the parent 3"-deoxydihydrostreptomycin were also estimated in the same manner as above for the comparison purpose and are shown in Table 1 below.

[2] = tested on: Mycobacterium smegmatis 607; experiment: as above; assay type: cell-based
Source text: as §1

[3] = tested on: Escherichia coli JR66/W677; experiment: as above; assay type: cell-based; conditions: 37° C., 17 hours
Source text: as §1

[4] = tested on: Staphylococcus aureus 209 P; experiment: as above; assay type: cell-based
Source text: as §1

[5] = tested on: Pseudomonas aeruginosa A3; experiment: as above; assay type: cell-based
Source text: as §1

[6] = tested on: Bacillus subtilis NRRL B558; experiment: as above; assay type: cell-based
Source text: as §1

Salmonella typhi T-63 = experiment: as above; assay type: cell-based; conditions: Salmonella enterica, 17 h
Source text: as §1

Escherichra coli ML 1630 = experiment: as above; assay type: cell-based; conditions: 37° C., 17 hours
Source text: as §1

[7] = tested on: Escherichia coli C600 R135; experiment: as above; assay type: cell-based; conditions: C600R135, 17 h
Source text: as §1

Escherichia coli K-12 = experiment: as above; assay type: cell-based
Source text: as §1

Escherichia coli W 677 = experiment: as above; assay type: cell-based
Source text: as §1

Escherichia coli ML 1629 = experiment: as above; assay type: cell-based
Source text: as §1

Sarcia lutea 1001 = experiment: as above; assay type: cell-based; conditions: 17 h
Source text: as §1

ICR mice = experiment: Acute toxicity by intravenous injection in mice; conditions: dosage of 4 mg/kg (so in the source)
[8] = tested on: streptomycin-resistant bacteria; experiment: Activity against streptomycin-resistant bacteria; assay type: cell-based; conditions: variety of streptomycin-resistant bacteria
Source text: as §1

in vivo = conditions: mouse, iv
[9] = Pseudomonas aeruginosa No. 12, nutrient agar, 37° C., 17 hours, read-out: MIC.
[10] = Mycolicibacterium smegmatis, Mycobacterium smegmatis 607, nutrient agar, 37° C., 17 hours, read-out: MIC.
[11] = Staphylococcus aureus, 209P, 17 h
[12] = Pseudomonas aeruginosa A3, nutrient agar, 37° C., 17 hours, read-out: MIC.
[13] = NRRLB558, Bacillus subtilis NRRL B558, nutrient agar, 37° C., 17 hours, read-out: MIC.
[14] = K12, Escherichia coli K-12, nutrient agar, 37° C., 17 hours, read-out: MIC.
[15] = W677, Escherichia coli W 677, nutrient agar, 37° C., 17 hours, read-out: MIC.

| Compound | MIC [1, 9] [µg/mL] | MIC [2, 10] [µg/mL] | MIC [3] [µg/mL] | MIC [4, 11] [µg/mL] | MIC [5, 12] [µg/mL] | MIC [6, 13] [µg/mL] | MIC (Salmonella typhi T-63) [µg/mL] | MIC (Escherichra coli ML 1630) [µg/mL] | MIC [7] [µg/mL] | MIC (Escherichia coli K-12; [14]) [µg/mL] | MIC (Escherichia coli W 677; [15]) [µg/mL] | MIC (Escherichia coli ML 1629; Escherichia coli, ML1629, 17 h) [µg/mL] | MIC (Sarcia lutea 1001) [µg/mL] | also measured |
| --- | --- | --- | --- | --- | --- | --- | --- | --- | --- | --- | --- | --- | --- | --- |
| CNC1CC(O)C(CO)OC1OC1C(OC2C(O)C(O)C(NC(=N)N)C(O)C2NC(=N)N)OC(C)C1(O)CO (stereo not shown) [3"-Deoxydihydrostreptomycin, 3"-deoxydihydrostreptomycin] | 25 (≈ 44 µM) | 0.78 (≈ 1.37 µM) | 12.5 (≈ 22 µM) | 3.12 (≈ 5.5 µM) | 12.5 (≈ 22 µM) | 1.56 (≈ 2.75 µM) | 3.12 (≈ 5.5 µM) | 1.56 (≈ 2.75 µM) | 3.12 (≈ 5.5 µM) | 1.56 (≈ 2.75 µM) | 1.56 (≈ 2.75 µM) | 3.12 (≈ 5.5 µM) | 3.12 (≈ 5.5 µM) | activity against the resistant bacteria (resistant bacteria): active against the resistant bacteria |
| CNC1CC(O)C(CO)OC1OC1C(OC2C(O)C(O)C(NC(=N)N)C(O)C2NC(=N)N)OC(C)C1(O)C=O (stereo not shown) [3"-Deoxystreptomycin, 3"-deoxystreptomycin] | 25 (≈ 44.2 µM) | 0.78 (≈ 1.38 µM) | 12.5 (≈ 22.1 µM) | – | 6.25 (≈ 11.1 µM) | 1.56 (≈ 2.76 µM) | 0.78 (≈ 1.38 µM) | 3.12 (≈ 5.52 µM) | 3.12 (≈ 5.52 µM) | 1.56 (≈ 2.76 µM) | 1.56 (≈ 2.76 µM) | – | 1.56 (≈ 2.76 µM) | survival for more than 14 days (ICR mice): all the treated mice survived for more than 14 days; activity against streptomycin-resistant bacteria [8]: active against a variety of streptomycin-resistant bacteria; LD50 at 336 h (in vivo): > 200 mg/kg; MIC ([4]; Staphylococcus aureus 209 P, nutrient agar, 37° C., 17 hours, read-out: MIC.): 3.12 µg/mL (≈ 5.52 µM); MIC (Escherichia coli ML 1629; ML1629, Escherichia coli ML 1629, nutrient agar, 37° C., 17 hours, read-out: MIC.): 1.56 µg/mL (≈ 2.76 µM) |
| [H]/N=C(/N)N[C@H]1[C@H](O)[C@@H](O)[C@H](O[C@@H]2O[C@@H](C)[C@](O)(C=O)[C@H]2O[C@@H]2O[C@@H](CO)[C@H](O)[C@@H](O)[C@@H]2NC)[C@@H](N/C(N)=N\[H])[C@@H]1O [Streptomycin, streptomycin] | – | – | > 100 | 3.12 (≈ 5.36 µM) | – | – | 25 (≈ 43 µM) | > 100 | 50 (≈ 86 µM) | – | – | 100 (≈ 172 µM) | 1.56 (≈ 2.68 µM) | MIC ([1]; Pseudomonas aeruginosa, NO.12, 17 h): 25 µg/mL (≈ 43 µM); MIC ([2]; Mycolicibacterium smegmatis, 607, 17 h): 1.56 µg/mL (≈ 2.68 µM); MIC ([5]; Pseudomonas aeruginosa, A3, 17 h): 6.25 µg/mL (≈ 10.7 µM); MIC ([6]; Bacillus subtilis, NRRLB558, 17 h): 0.78 µg/mL (≈ 1.34 µM); MIC (Escherichia coli K-12; Escherichia coli, K12, 17 h): 1.56 µg/mL (≈ 2.68 µM); MIC (Escherichia coli W 677; Escherichia coli, W677, 17 h): 1.56 µg/mL (≈ 2.68 µM) |

Reference: US4473557A, “3"-Deoxystreptomycin production thereof and pharmaceutical compositions containing same” (Zaidan Hojin Biseibutsu Kagaku Kenkyu Kai, priority 1982, dated 1984)
